Measured values: patent publication US9463198B2, “Compositions and methods for reducing or preventing metastasis” (Infectious Disease Research Institute, priority 2013, dated 2016)

Experiments:
MADB 106 tumor cells [1] = assay: MADB 106 lung tumor retention (LTR) in F344 rats; format: in vivo, F344 rat; settings: for MADB 106 LTR, GLA vs PBS (time course): with epinephrine
Method: GLA (IDRI, Seattle, Wash.), dissolved in stable emulsion (SE) (2000 μg/ml) was diluted in PBS for a final concentration of 3 μg/ml-200 μg/ml (depending on the relevant experiment). One-hundred μl from the chosen concentration were injected subcutaneously (s.c.) to each animal (0.3 μg-20 μg/animal), immediately, 4 h, 12 h, 24 h, 48 h, or 96 h prior to MADB106 tumor cell inoculation (depending on the relevant experiment).
MADB 106 tumor cells metastasize only to the lungs, and lung tumor retention (LTR), which is highly indicative of the number of metastases that would have developed weeks later, is dependent upon NK cells in this model. Additionally, because the metastatic process of MADB106 is sensitive to NK activity predominantly during the first 24 h following inoculation, LTR is more reflective of in vivo NK activity levels than the number of actual metastases. The MADB 106 cell line was maintained in monolayer cultures in complete media (RPMI-1640 media supplemented with 10% heat-inactivated fetal calf serum (FCS), 50 μg/mL of gentamicin, 2 mM of 1-glutamine, 0.1 mM of non-essential amino-acids, and 1 mM of sodium pyruvate, (Biological Industries, Kibbutz Biet Haemek, Israel) in 100% humidity, 5% CO2 at 37° C. Cells were removed from the culture flask with trypsin solution (0.25% in PBS), and were washed with complete media. This cell line was used for both in vivo assessment of lung tumor retention and in vitro examination of NK cytotoxicity.
Tumor cell DNA radiolabeling for assessment of LTR was accomplished by adding 0.5 μCi/ml of ^125Iododeoxyuridine (^125IDUR, Danyel Biotech, Rehovot, Israel) to the cell culture for 24 h. For tumor cell injection, rats were lightly anesthetized with isoflurane, and 4×10^5/kg MADB106 tumor cells in 2 ml/kg PBS containing 0.1% bovine serum albumin (BSA) were injected into their tail vein. Some of the experiments also employed an additional 0.5 ml s.c. injection of epinephrine (1.8 mg/kg in females and 0.6 mg/kg in males) dissolved in a slow-release emulsion (4 parts PBS, 3 parts mineral oil (Sigma, Rehovot, Israel), and 1 part mannide-monooleate (a non-specific surface active emulsifier, Sigma, Rehovot, Israel)), for the amplification of MADB 106 retention in the lungs, allowing better group distinction. For assessment of LTR, animals were sacrificed with CO2, their lungs were removed 24 h after inoculation with ^125IDUR-labeled tumor cells, and placed in a γ-counter to assess percent radioactivity retained in this organ. LTR was calculated using the following formula: (radioactivity count of lung−background radioactivity)×100/(radioactivity count of the total injected cell suspension−background radioactivity).
Seventy-five three months old F344 male rats were randomly divided into one of 7 experimental groups administered with PBS, SE, or GLA in a dose/animal of 0.3 μg, 0.7 μg, 2.5 μg, 10 μg, and 20 μg. Each animal was injected s.c. with 100 μl of drug according to its group assignment, and, 24 h later, MADB 106 cells were inoculated (as detailed in section 4 above). Each of these 7 groups was further sub-divided into two separate groups—one that was injected with epinephrine during tumor inoculation, and the second that was injected with vehicle. Twenty-four hours later, animals were sacrificed and lungs were extracted for LTR assessment (as detailed in section 4).
In the first experiment, 75 six-month old F344 male rats were randomly divided into one of 5 injection time points preceding tumor inoculation—0 h, 4 h, 12 h, 24 h, and 48 h. Each group was further sub-divided into one of three experimental drug groups—PBS, SE, and 2 μg GLA. Each animal was injected s.c. with 100 μl according to its relevant drug group, in its designated time point. At time 0 h, MADB106 cells were injected (as detailed in section 4), along with epinephrine. […]

MADB 106 tumor cells [2] = assay: Three week study of MADB106 metastases development in the lungs; format: in vivo, F344 rat; settings: male and female rats, 2 μg GLA s.c. 24 h before inoculation, counted three weeks later, GLA reducing the number
Method: Eighty-six six-month old F344 rats (44 females) were divided into three experimental groups (2 μg GLA, SE, and PBS). Each animal was injected s.c. with 100 μl according to its group assignment. Twenty-four hrs later, animals were lightly anesthetized with isoflurane and 10^5 MADB 106 tumor cells (approximately 4×10^5/kg) were injected into their tail vein in 0.5 ml of PBS (supplemented with 0.1% BSA). Three weeks later, rats were killed, and their lungs removed and placed for 24 h in Bouin's solution (72% saturated picric acid solution, 23% formaldehyde (37% solution) and 5% glacial acetic acid). After being washed in ethanol, visible surface metastases were counted by a researcher uninformed of the origin of each lung.

CNC[C@H](O)c1ccc(O)c(O)c1 [epinephrine, reference compound]
increasing LTR levels: effect of epinephrine on LTR (MADB 106 tumor cells [1]; s.c. slow-release emulsion given along with MADB 106 cell inoculation)

glucopyranosyl lipid adjuvant [GLA]
significant difference: MADB 106 LTR, GLA vs PBS (time course) (MADB 106 tumor cells [1]; female rats, 2 μg GLA s.c. 24 h before inoculation, p<0.05) | MADB 106 LTR, GLA vs PBS (time course) (MADB 106 tumor cells [1]; female rats, 2 μg GLA s.c. 48 h before inoculation, p<0.05) | MADB 106 LTR, GLA vs PBS (time course) (MADB 106 tumor cells [1]; male rats, 2 μg GLA s.c. 4 h before inoculation, p<0.05) | MADB 106 LTR, GLA vs PBS (time course) (MADB 106 tumor cells [1]; male rats, 2 μg GLA s.c. 12 h before inoculation, p<0.0001) | MADB 106 LTR, GLA vs PBS (time course) (MADB 106 tumor cells [1]; male rats, 2 μg GLA s.c. 24 h before inoculation, p<0.0001) | MADB 106 LTR, GLA vs PBS (time course) (MADB 106 tumor cells [1]; male rats, 2 μg GLA s.c. 48 h before inoculation, p<0.0001) | MADB 106 LTR, GLA vs PBS, no-depletion condition (MADB 106 tumor cells [1]; male rats, no NK depletion, 2 μg GLA s.c. 24 h before inoculation, p<0.01) | number of lung surface metastases, GLA vs SE (MADB 106 tumor cells [2]; p<0.01) | number of lung surface metastases, GLA vs PBS (MADB 106 tumor cells [2]; p<0.05)
≥ 0.7 μg per animal: dosage giving an additive effect for GLA over SE effects on LTR (MADB 106 tumor cells [1]; male rats, s.c. 24 h before inoculation)
no effect: MADB 106 LTR in NK-depleted animals (MADB 106 tumor cells [1]; male rats, NK depletion by anti-NKR-P1 mAb, 2 μg GLA or SE s.c. 24 h before inoculation)
significant improvement: MADB 106 LTR, GLA over PBS (MADB 106 tumor cells [1]; male rats, epinephrine groups, all GLA doses (0.3-20 μg/animal) s.c. 24 h before tumor inoculation, p<0.0001) | MADB 106 LTR, GLA over PBS (MADB 106 tumor cells [1]; male rats, vehicle (no epinephrine) groups, 0.7 μg/animal s.c. 24 h before inoculation, p<0.05) | MADB 106 LTR, GLA over PBS (MADB 106 tumor cells [1]; male rats, vehicle (no epinephrine) groups, 2.5 μg/animal s.c. 24 h before inoculation, p<0.01) | MADB 106 LTR, GLA over PBS (MADB 106 tumor cells [1]; male rats, vehicle (no epinephrine) groups, 10 μg/animal s.c. 24 h before inoculation, p<0.05) | MADB 106 LTR, GLA over PBS (MADB 106 tumor cells [1]; male rats, vehicle (no epinephrine) groups, 20 μg/animal s.c. 24 h before inoculation, p<0.01)
significant improvements: MADB 106 LTR, additive effect of GLA over SE (MADB 106 tumor cells [1]; male rats, epinephrine groups, 0.7 μg/animal s.c. 24 h before inoculation, p<0.05) | MADB 106 LTR, additive effect of GLA over SE (MADB 106 tumor cells [1]; male rats, epinephrine groups, 2.5 μg/animal s.c. 24 h before inoculation, p<0.01) | MADB 106 LTR, additive effect of GLA over SE (MADB 106 tumor cells [1]; male rats, epinephrine groups, 10 μg/animal s.c. 24 h before inoculation, p<0.01) | MADB 106 LTR, additive effect of GLA over SE (MADB 106 tumor cells [1]; male rats, epinephrine groups, 20 μg/animal s.c. 24 h before inoculation, p<0.001)
positively correlated with its dosage: reduction of the epinephrine effect on LTR, relation to dosage (MADB 106 tumor cells [1]; male rats, epinephrine groups, 0.3-20 μg/animal)
